Results published in ChEMBL document CHEMBL1131172 (J Med Chem, 1998).

Experiments:
786-0 = assay: Inhibition of the growth of renal cancer(786-0) cell line. value in parentheses is percent inhibition at 0.01 uM; format: functional; details: Homo sapiens
A549 [1] = assay: Inhibition of the growth of non-small-cell lung cancer (A549/ATCC) cell line; format: functional; details: Homo sapiens
A549 [2] = assay: Inhibition of the growth of non-small-cell lung cancer (A549/ATCC) cell line at 0.01 uM; format: functional; details: Homo sapiens
CAKI-1 [3] = assay: Inhibition of the growth of renal cancer(CAKI-1) cell line at 0.01 uM; format: functional; details: Homo sapiens
CAKI-1 [4] = assay: Inhibition of the growth of renal cancer(CAKI-1) cell line; format: functional; details: Homo sapiens
DU-145 [5] = assay: Inhibition of the growth of prostate cancer(DU-145) cell line; format: functional; details: Homo sapiens
DU-145 [6] = assay: Inhibition of the growth of prostate cancer(DU-145) cell line at 0.01 uM; format: functional; details: Homo sapiens
HCT-15 [7] = assay: Inhibition of the growth of colon cancer(HCT-15) cell line. value in parentheses is percent inhibition at 0.01 uM; format: functional; details: Homo sapiens
HCT-15 [8] = assay: inhibition of the growth of colon cancer(HCT-15) cell line; format: functional; details: Homo sapiens
HCT-116 [9] = assay: inhibition of the growth of colon cancer(HCT116) cell line; format: functional; details: Homo sapiens
HCT-116 [10] = assay: Inhibition of the growth of colon cancer(HCT116) cell line at 0.01 uM; format: functional; details: Homo sapiens
KM12 = assay: inhibition of the growth of colon cancer(KM-12) cell line at 0.01 uM; format: functional; details: Homo sapiens
IGROV-1 [11] = assay: Inhibition of the growth of ovarian cancer(IGROVI) cell line; format: functional; details: Homo sapiens
M14 [12] = assay: Inhibition of the growth of melanoma cancer (M14) cell line at 0.01 uM; format: functional; details: Homo sapiens
MOLT-4 = assay: Inhibition of the growth of leukemia (MOLT-4) cell line.; format: functional; details: Homo sapiens
NCI/ADR-RES [13] = assay: Inhibition of the growth of breast cancer (MCF7/ADR-RES) cell line; format: functional; details: Homo sapiens
NCI/ADR-RES [14] = assay: Inhibition of the growth of breast cancer (MCF7/ADR-RES) cell line at 0.01 uM; format: functional; details: Homo sapiens
MDA-MB-435 [15] = assay: Inhibition of the growth of breast cancer (MDA-MB-435) cell line; format: functional; details: Homo sapiens
MDA-N [16] = assay: Inhibition of the growth of breast cancer(MDA-N) cell line; format: functional; details: Homo sapiens
MDA-N [17] = assay: Inhibition of the growth of breast cancer(MDA-N) cell line at 0.01 uM; format: functional; details: Homo sapiens
MDA-MB-435 [18] = assay: Inhibition of the growth of breast cancer (MDA-MB-435) cell line at 0.01 uM; format: functional; details: Homo sapiens
M14 [19] = assay: Inhibition of the growth of melanoma cancer (M14) cell line; format: functional; details: Homo sapiens
MCF7 = assay: Inhibition of the growth of breast cancer (MCF-7) cell line; format: functional; details: Homo sapiens
NCI-H522 [20] = assay: inhibition of the growth of non-small-cell lung cancer (NCI-H522) cell line; format: functional; details: Homo sapiens
NCI-H522 [21] = assay: Inhibition of the growth of non-small-cell lung cancer (NCI-H522) cell line at 0.01 uM; format: functional; details: Homo sapiens
NCI-H460 [22] = assay: Inhibition of the growth of non-small-cell lung cancer (NCI-H460) cell line; format: functional; details: Homo sapiens
NCI-H23 [23] = assay: Inhibition of the growth of non-small-cell lung cancer (NCI-H23) cell line; format: functional; details: Homo sapiens
OVCAR-8 [24] = assay: Inhibition of the growth of ovarian cancer(OVCAR-8) cell line; format: functional; details: Homo sapiens
NCI-H460 [25] = assay: inhibition of the growth of non-small-cell lung cancer (NCI-H460) cell line at 0.01 uM; format: functional; details: Homo sapiens
NCI-H23 [26] = assay: Inhibition of the growth of non-small-cell lung cancer (NCI-H23) cell line at 0.01 uM; format: functional; details: Homo sapiens
RPMI-8226 [27] = assay: Inhibition of the growth of leukemia (RPMI-8226) cell line at 0.01 uM; format: functional; details: Homo sapiens
RPMI-8226 [28] = assay: Inhibition of the growth of leukemia (RPMI-8226) cell line; format: functional; details: Homo sapiens
SF-268 [29] = assay: Inhibition of the growth of CNS cancer(SF-268) cell line at 0.01 uM; format: functional; details: Homo sapiens
SF-268 [30] = assay: inhibition of the growth of CNS cancer(SF-268) cell line; format: functional; details: Homo sapiens
SF-295 [31] = assay: inhibition of the growth of CNS cancer(SF-295) cell line; format: functional; details: Homo sapiens
SF-295 [32] = assay: Inhibition of the growth of CNS cancer(SF-295) cell line at 0.01 uM; format: functional; details: Homo sapiens
SNB-19 [33] = assay: inhibition of the growth of CNS cancer(SNB-19) cell line; format: functional; details: Homo sapiens
SNB-19 [34] = assay: Inhibition of the growth of CNS cancer(SNB-19) cell line at 0.01 uM; format: functional; details: Homo sapiens
SF-539 = assay: inhibition of the growth of CNS cancer(SF-539) cell line. value in parentheses is percent inhibition at 0.01 uM; format: functional; details: Homo sapiens
SR [35] = assay: Inhibition of the growth of leukemia(SR) cell line. value in parentheses is percent inhibition at 0.01 uM at 0.01 uM; format: functional; details: Homo sapiens
SK-MEL-5 [36] = assay: Inhibition of the growth of melanoma cancer (SK-MEL-5) cell line at 0.01 uM; format: functional; details: Homo sapiens
SK-MEL-5 [37] = assay: Inhibition of the growth of melanoma cancer (SK-MEL-5) cell line; format: functional; details: Homo sapiens
UO-31 [38] = assay: Inhibition of the growth of renal cancer(UO-31) cell line; format: functional; details: Homo sapiens
UO-31 [39] = assay: Inhibition of the growth of renal cancer(UO-31) cell line at 0.01 uM; format: functional; details: Homo sapiens
IGROV-1 [40] = assay: Inhibition of the growth of ovarian cancer(IGROVI) cell line at 0.01 uM; format: functional; details: Homo sapiens
OVCAR-8 [41] = assay: Inhibition of the growth of ovarian cancer(OVCAR-8) cell line at 0.01 uM; format: functional; details: Homo sapiens
SR [42] = assay: Inhibition of the growth of leukemia(SR) cell line. value in parentheses is percent inhibition at 0.01 uM; format: functional; details: Homo sapiens
[43] = target: T1, Bifunctional dihydrofolate reductase-thymidylate synthase (Toxoplasma gondii, UniProt Q07422)
T1 sequence (Q07422 whole entry): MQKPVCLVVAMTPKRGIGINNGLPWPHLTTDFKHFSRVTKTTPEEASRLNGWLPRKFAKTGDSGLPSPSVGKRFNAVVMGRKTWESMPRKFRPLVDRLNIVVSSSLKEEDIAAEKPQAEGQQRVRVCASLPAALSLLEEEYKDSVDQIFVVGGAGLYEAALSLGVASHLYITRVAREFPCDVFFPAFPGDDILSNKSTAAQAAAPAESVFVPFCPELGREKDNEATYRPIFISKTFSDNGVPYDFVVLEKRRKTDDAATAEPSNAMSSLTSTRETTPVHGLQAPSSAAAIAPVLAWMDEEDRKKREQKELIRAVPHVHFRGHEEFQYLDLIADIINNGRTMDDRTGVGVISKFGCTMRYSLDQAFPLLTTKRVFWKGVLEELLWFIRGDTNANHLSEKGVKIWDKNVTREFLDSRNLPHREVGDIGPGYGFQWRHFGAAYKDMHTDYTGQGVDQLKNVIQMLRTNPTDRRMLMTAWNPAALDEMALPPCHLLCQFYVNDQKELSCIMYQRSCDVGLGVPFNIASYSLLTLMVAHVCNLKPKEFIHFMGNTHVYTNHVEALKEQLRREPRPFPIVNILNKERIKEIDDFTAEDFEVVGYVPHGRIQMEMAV
Description: Inhibitory activity against dihydrofolate reductase (DHFR) from Toxoplasma gondii

Dihydrofolate reductase [44] = target: T2, Dihydrofolate reductase (Pneumocystis carinii, UniProt P16184)
T2 sequence (P16184 whole entry): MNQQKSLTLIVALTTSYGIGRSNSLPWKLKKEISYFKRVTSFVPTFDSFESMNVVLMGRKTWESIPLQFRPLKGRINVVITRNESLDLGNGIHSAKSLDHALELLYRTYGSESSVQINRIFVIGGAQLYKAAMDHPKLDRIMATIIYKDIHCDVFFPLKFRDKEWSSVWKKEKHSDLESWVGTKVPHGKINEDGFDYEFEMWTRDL
Description: Inhibitory activity against dihydrofolate reductase (DHFR) from Pneumocystis carinii

Dihydrofolate reductase [45] = target: T3, Dihydrofolate reductase (Rattus norvegicus, UniProt Q920D2)
T3 sequence (Q920D2 whole entry): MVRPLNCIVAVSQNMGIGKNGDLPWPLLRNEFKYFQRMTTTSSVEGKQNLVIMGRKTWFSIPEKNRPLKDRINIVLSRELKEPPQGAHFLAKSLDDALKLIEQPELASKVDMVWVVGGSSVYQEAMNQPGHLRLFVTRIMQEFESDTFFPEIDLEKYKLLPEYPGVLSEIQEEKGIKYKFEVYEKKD
Description: Inhibitory activity against dihydrofolate reductase (DHFR) from rat liver

NCI-H322M = assay: Inhibition of the growth of non-small-cell lung cancer (NCI-H322M) cell line; details: Homo sapiens

COc1ccc(N(C)c2ccc3nc(N)nc(N)c3n2)cc1
GI50 (786-0): 590 nM | GI50 (A549 [1]): < 10 nM | inhibition at 0.01 µM (A549 [2]): 67% | inhibition at 0.01 µM (CAKI-1 [3]): 59% | GI50 (CAKI-1 [4]): < 10 nM | GI50 (DU-145 [5]): < 10 nM | inhibition at 0.01 µM (DU-145 [6]): 51% | inhibition at 0.01 µM (HCT-15 [7]): 67% | GI50 (HCT-15 [8]): < 10 nM | GI50 (HCT-116 [9]): < 10 nM | inhibition at 0.01 µM (HCT-116 [10]): 83% | GI50 (KM12): 20 nM | GI50 (IGROV-1 [11]): < 10 nM | inhibition at 0.01 µM (M14 [12]): 55% | GI50 (MOLT-4): 20 nM | GI50 (NCI/ADR-RES [13]): < 10 nM | inhibition at 0.01 µM (NCI/ADR-RES [14]): 100% | GI50 (MDA-MB-435 [15]): < 10 nM | GI50 (MDA-N [16]): < 10 nM | inhibition at 0.01 µM (MDA-N [17]): 66% | inhibition at 0.01 µM (MDA-MB-435 [18]): 68% | GI50 (M14 [19]): < 10 nM | GI50 (MCF7): 60 nM | GI50 (NCI-H522 [20]): < 10 nM | inhibition at 0.01 µM (NCI-H522 [21]): 53% | GI50 (NCI-H460 [22]): < 10 nM | GI50 (NCI-H23 [23]): < 10 nM | GI50 (OVCAR-8 [24]): < 10 nM | inhibition at 0.01 µM (NCI-H460 [25]): 84% | inhibition at 0.01 µM (NCI-H23 [26]): 54% | inhibition at 0.01 µM (RPMI-8226 [27]): 59% | GI50 (RPMI-8226 [28]): < 10 nM | inhibition at 0.01 µM (SF-268 [29]): 68% | GI50 (SF-268 [30]): < 10 nM | GI50 (SF-295 [31]): < 10 nM | inhibition at 0.01 µM (SF-295 [32]): 62% | GI50 (SNB-19 [33]): < 10 nM | inhibition at 0.01 µM (SNB-19 [34]): 51% | GI50 (SF-539): 30 nM | inhibition at 0.01 µM (SR [35]): 53% | inhibition at 0.01 µM (SK-MEL-5 [36]): 65% | GI50 (SK-MEL-5 [37]): < 10 nM | GI50 (UO-31 [38]): < 10 nM | inhibition at 0.01 µM (UO-31 [39]): 74% | inhibition at 0.01 µM (IGROV-1 [40]): 62% | inhibition at 0.01 µM (OVCAR-8 [41]): 90% | GI50 (SR [42]): < 10 nM | IC50 [43]: 8.6 nM | IC50 (Dihydrofolate reductase [44]): 220 nM | IC50 (Dihydrofolate reductase [45]): 6.8 nM | GI50 (NCI-H322M): 20 nM
